Test results reported in ChEMBL document CHEMBL1201862, “PubChem BioAssay data set” (2004).
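Values below derive from 48-hour exposures of cells grown in 96-well plates, with endpoints linearly interpolated between the two concentrations bracketing the appropriate inhibition level. Here, GI50 denotes the concentration required for 50% inhibition of growth.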 Calls of active or inactive are those of the source. Cut-off read from the data, not from the text of the source: active = GI50 up to about 1.1 µM and inactive = higher.

Tests used:
Test in all cases: NCI anticancer screen, dose series, 48 h
SNB-75 = system: SNB-75
SK-MEL-5 = system: SK-MEL-5
COLO 205 = system: COLO 205
SK-OV-3 = system: SK-OV-3
K562 = system: K562
CCRF-CEM = system: CCRF-CEM
HOP-92 = system: HOP-92
A549 = system: A549
SNB-19 = system: SNB-19
M19-MEL = system: M19-MEL
UO-31 = system: UO-31
NCI-H23 = system: NCI-H23
M14 = system: M14
IGROV-1 = system: IGROV-1
A498 = system: A498
TK-10 = system: TK-10
EKVX = system: EKVX
PC-3 = system: PC-3
BT-549 = system: BT-549
MDA-N = system: MDA-N

Row | SMILES | GI50 (SNB-75) | GI50 (SK-MEL-5) | GI50 (COLO 205) | GI50 (SK-OV-3) | GI50 (K562) | GI50 (CCRF-CEM) | GI50 (HOP-92) | GI50 (A549) | GI50 (SNB-19) | GI50 (M19-MEL) | GI50 (UO-31) | GI50 (NCI-H23) | GI50 (M14) | GI50 (IGROV-1) | GI50 (A498) | GI50 (TK-10) | GI50 (EKVX) | GI50 (PC-3) | GI50 (BT-549) | GI50 (MDA-N)
1 | NCCSc1nc(N)c2ncn(C3OC(CO)C(O)C3O)c2n1 (stereo unspecified) | > 100 µM (inactive) | > 100 µM (inactive) | > 100 µM (inactive) | > 100 µM (inactive) | > 100 µM (inactive) | > 100 µM (inactive) | > 100 µM (inactive) | > 100 µM (inactive) | > 100 µM (inactive) | > 100 µM (inactive) | > 100 µM (inactive) | > 100 µM (inactive) | > 100 µM (inactive) | > 100 µM (inactive) | > 100 µM (inactive) | > 100 µM (inactive) |  |  |  | 
2 | COc1ccc(C(=O)Cc2c(C(=O)c3ccccc3)c3ccccc3n2C(=O)c2ccccc2)cc1 | 18.3 µM (inactive) | 17.7 µM (inactive) | > 100 µM (inactive) |  | 51.3 µM (inactive) | 46.6 µM (inactive) | 25.2 µM (inactive) | 35.7 µM (inactive) | 92 µM (inactive) | > 100 µM (inactive) | 32.9 µM (inactive) | 50.2 µM (inactive) | > 100 µM (inactive) | > 100 µM (inactive) |  | > 100 µM (inactive) |  |  |  | 
3 | COC(=O)C(=O)C(C(C)=O)C(=O)NCc1ccccc1 (stereo unspecified) | > 100 µM (inactive) | > 100 µM (inactive) | > 100 µM (inactive) |  | > 100 µM (inactive) | 83.2 µM (inactive) | > 100 µM (inactive) | > 100 µM (inactive) | > 100 µM (inactive) | > 100 µM (inactive) | > 100 µM (inactive) | > 100 µM (inactive) | > 100 µM (inactive) | > 100 µM (inactive) | > 100 µM (inactive) | > 100 µM (inactive) | > 100 µM (inactive) |  |  | 
4 | O=[N+]([O-])c1cccc(C2=NOC3C4CCC(C4)C23)c1 (stereo unspecified) | > 100 µM (inactive) | > 100 µM (inactive) | > 100 µM (inactive) | > 100 µM (inactive) |  |  | > 100 µM (inactive) | > 100 µM (inactive) |  | > 100 µM (inactive) | > 100 µM (inactive) | > 100 µM (inactive) | > 100 µM (inactive) | > 100 µM (inactive) | > 100 µM (inactive) | > 100 µM (inactive) |  |  |  | 
5 | COc1ccc2nc(-c3ccc(OCc4ccccc4)cc3)ccc2c1 | > 100 µM (inactive) | > 100 µM (inactive) | > 100 µM (inactive) | > 100 µM (inactive) | > 100 µM (inactive) | > 100 µM (inactive) | > 100 µM (inactive) | > 100 µM (inactive) | > 100 µM (inactive) | > 100 µM (inactive) | > 100 µM (inactive) | > 100 µM (inactive) | > 100 µM (inactive) | > 100 µM (inactive) |  | > 100 µM (inactive) | > 100 µM (inactive) |  |  | 
6 | COCCOCOC(CCCCO)c1cc(C)c(O[Si](C)(C)C(C)(C)C)c(C)c1 (stereo unspecified) | 10.6 µM (inactive) | 2.64 µM (inactive) | 7.71 µM (inactive) | 17.6 µM (inactive) | 3.22 µM (inactive) | 4.39 µM (inactive) |  | 3.68 µM (inactive) | 6.35 µM (inactive) | 5.11 µM (inactive) | 4.11 µM (inactive) | 5.55 µM (inactive) | 10.3 µM (inactive) | 12.2 µM (inactive) | 12.4 µM (inactive) | 13.4 µM (inactive) | 8.17 µM (inactive) |  |  | 
7 | Cc1c(C(=O)/C=C/c2ccco2)[n+]([O-])c2ccccc2[n+]1[O-] | > 100 µM (inactive) |  | > 100 µM (inactive) | > 100 µM (inactive) | 56.4 µM (inactive) | 36.1 µM (inactive) | 45.4 µM (inactive) | > 100 µM (inactive) | > 100 µM (inactive) | > 100 µM (inactive) | > 100 µM (inactive) | > 100 µM (inactive) | > 100 µM (inactive) | > 100 µM (inactive) | > 100 µM (inactive) | > 100 µM (inactive) | > 100 µM (inactive) |  |  | 
8 | O=C(O)CNS(=O)(=O)c1ccc(NCc2ccccc2)cc1 | > 100 µM (inactive) | > 100 µM (inactive) | > 100 µM (inactive) | > 100 µM (inactive) | > 100 µM (inactive) | > 100 µM (inactive) | > 100 µM (inactive) | > 100 µM (inactive) | > 100 µM (inactive) | > 100 µM (inactive) | > 100 µM (inactive) | > 100 µM (inactive) | > 100 µM (inactive) | > 100 µM (inactive) |  | > 100 µM (inactive) | > 100 µM (inactive) |  |  | 
9 | COC(=O)NC1=NNC(=O)c2ccccc2N1 | > 100 µM (inactive) | > 100 µM (inactive) | > 100 µM (inactive) | > 100 µM (inactive) | > 100 µM (inactive) | > 100 µM (inactive) | > 100 µM (inactive) | > 100 µM (inactive) | > 100 µM (inactive) |  | > 100 µM (inactive) | > 100 µM (inactive) | > 100 µM (inactive) | > 100 µM (inactive) | > 100 µM (inactive) | > 100 µM (inactive) | > 100 µM (inactive) | > 100 µM (inactive) | > 100 µM (inactive) | > 100 µM (inactive)
10 | CC1C2=CC=C(O2)C(C)(C)C2=CC=C(O2)C(C)(C)C2=CC=C(O2)C(C)(C)C2=CC=C1O2 |  |  | > 100 µM (inactive) | > 100 µM (inactive) | > 100 µM (inactive) | > 100 µM (inactive) | 18.9 µM (inactive) | > 100 µM (inactive) | > 100 µM (inactive) | > 100 µM (inactive) |  | > 100 µM (inactive) |  | > 100 µM (inactive) | > 100 µM (inactive) | > 100 µM (inactive) | > 100 µM (inactive) |  |  | 
11 | Oc1c(Br)cc(CN(Cc2cc(Br)c(O)c(Br)c2)C2CCCCC2)cc1Br | > 100 µM (inactive) | > 100 µM (inactive) | > 100 µM (inactive) | > 100 µM (inactive) | > 100 µM (inactive) | > 100 µM (inactive) | > 100 µM (inactive) | > 100 µM (inactive) | > 100 µM (inactive) |  | > 100 µM (inactive) | > 100 µM (inactive) | > 100 µM (inactive) | > 100 µM (inactive) | > 100 µM (inactive) | > 100 µM (inactive) | > 100 µM (inactive) | > 100 µM (inactive) | > 100 µM (inactive) | > 100 µM (inactive)
12 | Oc1cc(-c2ccccn2)nc2cccc(F)c12 | 51.4 µM (inactive) | 61.4 µM (inactive) | > 100 µM (inactive) | > 100 µM (inactive) | > 100 µM (inactive) | > 100 µM (inactive) | > 100 µM (inactive) | > 100 µM (inactive) | > 100 µM (inactive) | > 100 µM (inactive) | > 100 µM (inactive) | > 100 µM (inactive) | > 100 µM (inactive) | > 100 µM (inactive) |  | > 100 µM (inactive) | > 100 µM (inactive) |  |  | 
13 | Cc1nc2ccccc2nc1-c1ccc(/N=[N+](\[O-])c2ccc(-c3nc4ccccc4nc3C)cc2)cc1 | 21 µM (inactive) | > 96.4 µM (inactive) | > 100 µM (inactive) | 30.8 µM (inactive) | > 100 µM (inactive) | > 100 µM (inactive) | > 39.5 µM (inactive) | > 100 µM (inactive) | 48.8 µM (inactive) |  | > 81.3 µM (inactive) | > 83.4 µM (inactive) | > 96.2 µM (inactive) | > 82.4 µM (inactive) | > 53.2 µM (inactive) | 20.1 µM (inactive) | > 100 µM (inactive) | > 100 µM (inactive) | > 85.9 µM (inactive) | > 100 µM (inactive)
14 | CC(C)C(Br)C(=O)NCC(=O)O (stereo unspecified) | > 100 µM (inactive) | > 100 µM (inactive) | > 100 µM (inactive) | > 100 µM (inactive) | > 100 µM (inactive) | > 100 µM (inactive) | > 100 µM (inactive) | > 100 µM (inactive) | > 100 µM (inactive) |  | > 100 µM (inactive) | > 100 µM (inactive) | > 100 µM (inactive) | > 100 µM (inactive) | > 100 µM (inactive) | > 100 µM (inactive) | > 100 µM (inactive) | > 100 µM (inactive) | > 100 µM (inactive) | > 100 µM (inactive)
15 | Cn1nnc2c(C(N)=S)ncn2c1=O | > 100 µM (inactive) | > 100 µM (inactive) | > 100 µM (inactive) | > 100 µM (inactive) | > 100 µM (inactive) | > 100 µM (inactive) | > 100 µM (inactive) | > 100 µM (inactive) | > 100 µM (inactive) |  | > 100 µM (inactive) | > 100 µM (inactive) | > 100 µM (inactive) | > 100 µM (inactive) | > 100 µM (inactive) | > 100 µM (inactive) | > 100 µM (inactive) | > 100 µM (inactive) | > 100 µM (inactive) | > 100 µM (inactive)
16 | CCOC(=O)CCC(NC(=O)C(N)Cc1ccc(N(CCCl)CCCl)cc1)C(=O)OCC (stereo unspecified) | 0.733 µM (active) | 1.5 µM (inactive) | 0.735 µM (active) | 1.3 µM (inactive) | 0.446 µM (active) | < 0.0246 µM (active) | 0.253 µM (active) | 2.72 µM (inactive) | 4.09 µM (inactive) |  | 0.675 µM (active) | 0.43 µM (active) | 0.225 µM (active) | 1.17 µM (inactive) | 32.1 µM (inactive) | 1.31 µM (inactive) | 2.36 µM (inactive) | 1.34 µM (inactive) | 4.66 µM (inactive) | 1.64 µM (inactive)
